Results from PMC12624743 (ACS Infectious Diseases, 2025).
In brackets after ≈: the same amount, converted by molar mass.

Tests used:
[1] = system: N. gonorrhoeae FA1090E-4 (GyrA^D90N/ParC^WT); assay: MIC by agar dilution, GyrA^D90N strain; assay type: cell-based; conditions: Neisseria gonorrhoeae
Experimental: This strain was designated FA1090E-4 (GyrA^D90N).
(§1) Minimum inhibitory concentration (MIC) of test compounds was determined by an agar dilution method, the reference testing method for N. gonorrhoeae according to the standards of the Clinical and Laboratory Standards Institute and the CDC.

[2] = target: T1, N. gonorrhoeae topoisomerase IV ParC^D86N (Neisseria gonorrhoeae, UniProt P48374, D86N); assay: DNA cleavage assay, ParC^D86N topoisomerase IV; assay type: biochemical
T1 construct: His; made in house
T1 sequence (P48374 1-768 D86N): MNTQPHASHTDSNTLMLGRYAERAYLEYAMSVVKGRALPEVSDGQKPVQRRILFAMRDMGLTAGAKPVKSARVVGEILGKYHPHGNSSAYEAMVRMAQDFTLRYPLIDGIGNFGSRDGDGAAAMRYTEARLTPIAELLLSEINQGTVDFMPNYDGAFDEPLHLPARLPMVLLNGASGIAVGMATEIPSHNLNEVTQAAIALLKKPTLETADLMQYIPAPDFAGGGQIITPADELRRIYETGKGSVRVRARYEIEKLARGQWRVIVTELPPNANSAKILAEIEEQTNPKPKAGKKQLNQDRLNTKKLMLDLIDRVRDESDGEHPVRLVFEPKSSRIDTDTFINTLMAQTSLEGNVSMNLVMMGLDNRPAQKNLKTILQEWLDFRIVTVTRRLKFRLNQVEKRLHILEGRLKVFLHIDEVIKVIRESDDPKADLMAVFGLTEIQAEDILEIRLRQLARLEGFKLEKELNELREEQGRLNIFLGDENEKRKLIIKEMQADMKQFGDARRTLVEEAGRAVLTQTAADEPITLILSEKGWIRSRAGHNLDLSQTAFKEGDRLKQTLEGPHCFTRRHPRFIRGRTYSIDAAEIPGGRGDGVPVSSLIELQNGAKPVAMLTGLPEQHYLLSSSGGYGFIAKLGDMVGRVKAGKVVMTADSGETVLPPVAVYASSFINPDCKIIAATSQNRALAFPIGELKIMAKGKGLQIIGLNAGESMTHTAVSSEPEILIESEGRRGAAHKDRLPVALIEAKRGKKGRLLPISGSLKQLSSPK
Experimental: Some experiments replaced MgCl2 with an equivalent concentration of CaCl2 (10 mM), or 1.5 mM ATP was added to assay mixtures.
Reactions were incubated at 37 °C for 30 min with WT and mutant (GyrA^D90N, GyrA^A92T, GyrA^S91F, GyrA^D95G, or GyrA^S91F/D95G) N. gonorrhoeae gyrase, 10 min with WT N. gonorrhoeae topoisomerase IV, and 20 min with mutant (ParC^D86N, ParC^S88P, ParC^S87N, or ParC^E91G) N. gonorrhoeae topoisomerase IV. Enzyme-DNA cleavage complexes were trapped by adding 2 μL of 5% SDS followed by 2 μL of 250 mM EDTA (pH 8.0). Proteinase K was added (2 μL of a 0.8 mg/mL solution), and reaction mixtures were incubated at 45 °C for 30 min to digest the enzyme. Samples were mixed with 2 μL of loading buffer and heated at 45 °C for 2 min prior to electrophoresis in 1% agarose gels in 40 mM Tris-acetate (pH 8.3), and 2 mM EDTA containing 0.5 μg/mL ethidium bromide. DNA bands were visualized by midrange ultraviolet light and quantified using an Alpha Innotech digital imaging system (Protein Simple). Single-stranded DNA cleavage was monitored by the conversion of negatively supercoiled to nicked plasmid molecules.

[3] = system: N. gonorrhoeae FA1090E-3 (GyrA^A92T/ParC^D86N); assay: MIC by agar dilution, GyrA^A92T/ParC^D86N strain; assay type: cell-based, Neisseria gonorrhoeae
Experimental: This strain was designated FA1090E-3 (GyrA^A92T/ParC^D86N).
as §1

[4] = target: N. gonorrhoeae topoisomerase IV ParC^S87N (Neisseria gonorrhoeae, UniProt P48374, S87N); assay: Topoisomerase IV-catalyzed DNA decatenation assay, ParC^S87N; assay type: biochemical; parameters: His; made in house
Experimental: All proteins were His-tagged. N. gonorrhoeae WT gyrase (GyrA, GyrB) and topoisomerase IV (ParC, ParE) subunits as well as mutant GyrA^D90N, GyrA^A92T, GyrA^S91F, and GyrA^S91F/D95G gyrase and ParC^D86N and ParC^S88P topoisomerase IV were prepared as described previously. , N. gonorrhoeae mutant GyrA^D95G gyrase and mutant ParC^S87N and ParC^E91G topoisomerase IV were generated using a QuickChange II XL site-directed mutagenesis kit (Agilent Technologies) with custom primers for the desired mutations. Mutant N. gonorrhoeae GyrA and ParC subunits were expressed and purified as described by Ashley et al. with the following modifications to optimize protein expression and lysis: (1) GyrA^D95G was expressed for 2.5 h and ParC^S87N and ParC^E91G were expressed for 3 h before harvesting, and (2) cells were lysed by sonication using a digital sonifier (Branson). The identities of all constructs were confirmed by DNA sequencing, and all enzymes were stored at −80 °C. In all assays, N. gonorrhoeae gyrase or topoisomerase IV was used as a 1:1 GyrA:GyrB or ParC:ParE mixture, respectively, and the stated enzyme concentration reflects that of the holoenzyme (A2B2). […]

Chain of N. gonorrhoeae topoisomerase IV ParC^S87N (P48374 whole entry S87N): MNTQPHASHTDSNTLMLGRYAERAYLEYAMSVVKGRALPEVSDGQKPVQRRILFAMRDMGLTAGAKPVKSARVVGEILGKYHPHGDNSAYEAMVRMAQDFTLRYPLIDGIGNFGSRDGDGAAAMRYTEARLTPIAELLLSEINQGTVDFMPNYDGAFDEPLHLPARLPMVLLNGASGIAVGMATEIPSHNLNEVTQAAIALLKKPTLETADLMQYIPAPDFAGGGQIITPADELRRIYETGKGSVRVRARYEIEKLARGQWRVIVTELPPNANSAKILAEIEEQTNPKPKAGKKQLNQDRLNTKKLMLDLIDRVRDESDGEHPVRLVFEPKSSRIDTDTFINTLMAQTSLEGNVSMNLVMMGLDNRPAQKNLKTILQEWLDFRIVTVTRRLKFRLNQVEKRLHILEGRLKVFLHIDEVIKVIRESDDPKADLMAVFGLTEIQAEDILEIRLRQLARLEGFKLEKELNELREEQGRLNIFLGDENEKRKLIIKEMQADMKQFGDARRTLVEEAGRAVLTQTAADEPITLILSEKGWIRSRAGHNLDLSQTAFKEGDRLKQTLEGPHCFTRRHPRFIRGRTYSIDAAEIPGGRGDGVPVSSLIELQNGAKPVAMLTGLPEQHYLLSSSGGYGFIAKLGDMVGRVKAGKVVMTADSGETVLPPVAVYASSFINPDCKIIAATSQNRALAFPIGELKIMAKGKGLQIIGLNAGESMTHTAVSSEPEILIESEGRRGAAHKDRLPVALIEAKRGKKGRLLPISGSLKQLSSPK

O=c1ccc2ncc(=O)n3c2n1C[C@H]3CN1CCC(NCc2cc3c(cn2)OCCC3)CC1 [gepotidacin]
MIC [1]: 1 µg/mL (≈ 2.23 µM)
Adj-Max Cleavage, single-stranded DNA breaks [2]: 9.3%
EC50 ([2]; ParC D86N topoisomerase IV, read-out: CC50, single-stranded DNA cleavage): > 50000 nM
MIC ([3]; Neisseria gonorrhoeae): 8 µg/mL (≈ 17.8 µM)
fold-change in MIC from WT/WT parental strain ([3]; strain FA1090E-3 vs FA1090E): 16 fold
IC50 [4]: 800 nM
